The target of the experiment is T1, hNav1.2 sodium channel (Homo sapiens, UniProt Q99250).
T1 construct: expressed in transfected cells
Nature of the experiment: Nav1.2 use-dependent block, whole-cell voltage clamp, 10 Hz pulse train. It counts as cell-based. To be noted: Chantest conditions, read-out: NAV1.2 UDB-10 HZ % Inhibition. The text has this: Wild-type (WT) cDNA stably transfected in Chinese hamster ovary (CHO) cells is used to record INa. Unless otherwise noted, all reagents are purchased from Sigma-Aldrich (St Louis, Mo., U.S.A.).
Whole-cell voltage-clamp recordings are used to measure the biophysical properties of WT. Briefly, the pipette solution consists of (in mM) 110 CsF, 10 NaF, 20 CsCl, 2 EGTA, 10 HEPES, with a pH of 7.35 and osmolarity of 300 mOsmol/kg. The bath (control) solution contains in (mM): 145 NaCl, 4 KCl, 1.8 CaCl2, 1 MgCl2, 10 dextrose, 10 HEPES, with a pH of 7.35 and osmolarity of 310 mOsmol/kg. Cells are allowed to stabilize for 10 min after establishment of the whole-cell configuration before current is measured. Series resistance is compensated 90% to assure that the command potential is reached within microseconds with a voltage error<2 mV. Leak currents are subtracted by using an online P/4 procedure and all currents are low-pass Bessel filtered at 5 kHz and digitized at 50 kHz.
Tonic block of peak current is measured using a step to −10 mV (20 ms) from a holding potential of −120 mV (0.2 Hz). Use-dependent block of peak current is measured during pulse number 300 of a pulse train (−10 mV, 5 ms, 300 pulses, 10 Hz or 25 Hz) from a holding potential of −120 mV. Currents are then normalized to the peak current recorded in response to the first pulse in each frequency train. For tonic block studies, peak current is evaluated in response to a 20 ms depolarization to −10 mV (0.2 Hz). Two sequential pulse train stimulations are averaged to obtain mean current traces for each recording condition, which are then used for offline subtraction and analysis.
A stock solution of 10 mM compound of Formula I is prepared in 0.1 M HCl or DMSO. A fresh dilution of the compound of Formula I in the bath solution is prepared every experimental day and the pH is readjusted to 7.35 as necessary. The final DMSO concentration was kept at 0.1% in all solutions. Direct application of the perfusion solution to the clamped cell is achieved using the Perfusion Pencil system (Automate, Berkeley, Calif.). Direct cell perfusion is driven by gravity at a flow rate of 350 μL/min using a 250 micron tip. This system sequesters the clamped cell within a perfusion stream and enables complete solution exchange within 1 second. The clamped cell is perfused continuously starting immediately after establishing the whole-cell configuration. Control currents are measured during control solution perfusion.
Solutions are perfused for three minutes prior to current recordings to allow equilibrium (tonic) drug block. Tonic block of peak currents is measured from this steady-state condition. Three sequential current traces are averaged to obtain a mean current for each recording. The mean current traces are utilized for offline analysis.

T1 sequence (Q99250 whole entry): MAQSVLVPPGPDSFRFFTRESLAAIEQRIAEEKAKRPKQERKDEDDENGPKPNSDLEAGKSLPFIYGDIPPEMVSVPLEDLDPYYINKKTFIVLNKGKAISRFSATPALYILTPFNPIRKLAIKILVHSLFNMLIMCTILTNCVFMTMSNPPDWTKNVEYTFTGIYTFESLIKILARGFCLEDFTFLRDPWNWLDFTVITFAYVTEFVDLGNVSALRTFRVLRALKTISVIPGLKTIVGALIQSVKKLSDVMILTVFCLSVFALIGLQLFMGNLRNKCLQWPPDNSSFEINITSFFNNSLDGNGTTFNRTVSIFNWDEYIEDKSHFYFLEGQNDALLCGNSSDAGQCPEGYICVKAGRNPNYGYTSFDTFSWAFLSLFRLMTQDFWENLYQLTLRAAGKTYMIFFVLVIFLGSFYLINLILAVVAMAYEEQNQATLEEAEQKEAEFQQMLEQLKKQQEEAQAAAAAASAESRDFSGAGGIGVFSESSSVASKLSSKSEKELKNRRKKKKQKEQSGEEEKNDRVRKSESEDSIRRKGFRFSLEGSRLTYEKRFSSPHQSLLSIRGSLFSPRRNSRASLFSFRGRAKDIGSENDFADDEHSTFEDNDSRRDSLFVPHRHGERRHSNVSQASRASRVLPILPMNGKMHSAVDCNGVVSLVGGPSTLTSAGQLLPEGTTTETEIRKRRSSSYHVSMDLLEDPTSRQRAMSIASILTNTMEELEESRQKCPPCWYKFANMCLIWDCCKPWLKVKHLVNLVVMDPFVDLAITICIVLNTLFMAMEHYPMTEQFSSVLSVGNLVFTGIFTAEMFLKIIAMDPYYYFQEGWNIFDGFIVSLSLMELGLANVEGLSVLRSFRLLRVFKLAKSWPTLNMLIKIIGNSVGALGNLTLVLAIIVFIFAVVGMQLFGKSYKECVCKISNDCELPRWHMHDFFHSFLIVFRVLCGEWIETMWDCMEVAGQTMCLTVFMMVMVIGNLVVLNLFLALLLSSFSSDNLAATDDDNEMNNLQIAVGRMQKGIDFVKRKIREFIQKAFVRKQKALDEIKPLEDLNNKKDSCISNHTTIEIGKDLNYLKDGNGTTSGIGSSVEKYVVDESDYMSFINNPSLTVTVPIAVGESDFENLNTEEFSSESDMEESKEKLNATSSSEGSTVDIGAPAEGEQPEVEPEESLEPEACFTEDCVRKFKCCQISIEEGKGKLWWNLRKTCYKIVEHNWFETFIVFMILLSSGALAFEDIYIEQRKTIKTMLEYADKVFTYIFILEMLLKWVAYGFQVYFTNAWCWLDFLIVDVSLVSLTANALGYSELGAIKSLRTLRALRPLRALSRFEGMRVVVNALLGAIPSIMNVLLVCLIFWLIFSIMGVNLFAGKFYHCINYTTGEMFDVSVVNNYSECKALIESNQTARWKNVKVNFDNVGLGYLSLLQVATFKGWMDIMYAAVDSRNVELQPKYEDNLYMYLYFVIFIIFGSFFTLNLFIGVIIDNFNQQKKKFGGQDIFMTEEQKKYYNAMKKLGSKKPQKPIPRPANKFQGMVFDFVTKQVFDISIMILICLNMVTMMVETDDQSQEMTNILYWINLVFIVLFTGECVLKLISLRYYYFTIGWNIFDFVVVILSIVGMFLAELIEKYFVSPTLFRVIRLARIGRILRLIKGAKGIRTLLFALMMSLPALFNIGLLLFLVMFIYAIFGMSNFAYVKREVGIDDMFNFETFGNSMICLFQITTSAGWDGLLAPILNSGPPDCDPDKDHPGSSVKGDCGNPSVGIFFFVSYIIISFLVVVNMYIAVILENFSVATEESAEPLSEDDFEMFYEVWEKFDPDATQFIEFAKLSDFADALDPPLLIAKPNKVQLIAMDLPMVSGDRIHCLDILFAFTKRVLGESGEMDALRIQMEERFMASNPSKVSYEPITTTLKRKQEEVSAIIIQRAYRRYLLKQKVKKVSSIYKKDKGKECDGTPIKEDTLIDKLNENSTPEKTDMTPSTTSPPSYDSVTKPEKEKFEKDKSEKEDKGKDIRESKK

In general, inhibition refers to how much of the control response was suppressed. Consider `FC(F)(F)c1ccc(-c2ccc3c(c2)C(NCc2ccccc2)=NCCO3)cc1` [II-2, N-benzyl-7-(4-(trifluoromethyl)phenyl)-2,3-dihydrobenzo[f][1,4]oxazepin-5-amine], for which the inhibition at 1 µM came to 24%.
